Among the data in ChEMBL document CHEMBL1150311, “4-Methyl-5-phenyl triazoles as selective inhibitors of 11beta-hydroxysteroid dehydrogenase type I” (Bioorg Med Chem Lett, 2008) are IC50 and inhibition in vivo values, retold here.

Structures are written as SMILES.

Broadly, the IC50 is the concentration that gives 50% inhibition. Lower therefore signals greater potency in that assay. As a reminder, the inhibition in vivo is the relative decrease from the control value, in per cent.

The target in assay [1] is 11-beta-hydroxysteroid dehydrogenase 1 (Mus musculus, UniProt P50172). As to the kind of experiment: Inhibition of mouse 11beta HSD1 by SPA assay.
The target in assay [2] is T1, 11-beta-hydroxysteroid dehydrogenase type 2 (Mus musculus, UniProt P51661).
T1 sequence (P51661 whole entry): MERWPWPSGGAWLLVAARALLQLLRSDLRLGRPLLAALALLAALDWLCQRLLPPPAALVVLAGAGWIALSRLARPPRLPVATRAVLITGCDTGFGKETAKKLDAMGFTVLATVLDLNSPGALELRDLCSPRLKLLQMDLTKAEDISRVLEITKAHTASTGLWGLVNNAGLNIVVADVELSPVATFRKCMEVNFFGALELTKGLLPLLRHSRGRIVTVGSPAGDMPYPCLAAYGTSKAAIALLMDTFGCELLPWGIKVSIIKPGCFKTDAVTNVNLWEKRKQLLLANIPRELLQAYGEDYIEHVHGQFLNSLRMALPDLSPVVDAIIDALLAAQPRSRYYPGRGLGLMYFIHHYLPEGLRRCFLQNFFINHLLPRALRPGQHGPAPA
Description: Inhibition of mouse 11beta HSD2.

Assay [3] deals with T2, 11-beta-hydroxysteroid dehydrogenase type 2 (Homo sapiens, UniProt P80365).
T2 sequence (P80365 whole entry): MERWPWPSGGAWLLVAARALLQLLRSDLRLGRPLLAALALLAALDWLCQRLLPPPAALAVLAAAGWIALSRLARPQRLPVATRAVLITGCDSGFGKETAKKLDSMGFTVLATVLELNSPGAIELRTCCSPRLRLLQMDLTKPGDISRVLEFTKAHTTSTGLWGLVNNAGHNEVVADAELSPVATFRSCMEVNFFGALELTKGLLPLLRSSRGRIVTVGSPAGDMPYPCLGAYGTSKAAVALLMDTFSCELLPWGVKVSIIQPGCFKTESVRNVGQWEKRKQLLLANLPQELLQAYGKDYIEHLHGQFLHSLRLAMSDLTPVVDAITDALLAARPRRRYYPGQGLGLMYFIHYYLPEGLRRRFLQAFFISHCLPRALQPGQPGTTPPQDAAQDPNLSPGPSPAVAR
Description: Inhibition of human 11beta HSD2.

Assay [4] deals with Mus musculus. Description: Inhibition of [3H]cortisone to [3H]cortisol conversion in mouse at 10 mg/kg, po administered as single dose after 4 hrs. The assay is classed as functional.
Assay [5] has as its target 11-beta-hydroxysteroid dehydrogenase 1 (Homo sapiens, UniProt P28845). Description: Inhibition of human 11beta HSD1 by SPA assay.
The test system of assay [6] is Mus musculus. As to the kind of experiment: Inhibition of [3H]cortisone to [3H]cortisol conversion in mouse at 10 mg/kg, po administered as single dose after 1 hr. The assay is classed as functional.

Sequence of 11-beta-hydroxysteroid dehydrogenase 1 (Mus musculus, UniProt P50172) (P50172 whole entry): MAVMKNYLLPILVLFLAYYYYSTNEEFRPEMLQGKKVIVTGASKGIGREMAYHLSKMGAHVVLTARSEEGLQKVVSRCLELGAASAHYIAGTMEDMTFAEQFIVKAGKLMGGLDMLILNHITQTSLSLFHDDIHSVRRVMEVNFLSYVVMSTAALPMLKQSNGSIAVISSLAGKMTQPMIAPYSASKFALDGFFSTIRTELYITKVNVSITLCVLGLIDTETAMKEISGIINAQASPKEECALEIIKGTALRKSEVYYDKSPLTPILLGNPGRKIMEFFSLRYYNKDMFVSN
Sequence of 11-beta-hydroxysteroid dehydrogenase 1 (Homo sapiens, UniProt P28845) (P28845 whole entry): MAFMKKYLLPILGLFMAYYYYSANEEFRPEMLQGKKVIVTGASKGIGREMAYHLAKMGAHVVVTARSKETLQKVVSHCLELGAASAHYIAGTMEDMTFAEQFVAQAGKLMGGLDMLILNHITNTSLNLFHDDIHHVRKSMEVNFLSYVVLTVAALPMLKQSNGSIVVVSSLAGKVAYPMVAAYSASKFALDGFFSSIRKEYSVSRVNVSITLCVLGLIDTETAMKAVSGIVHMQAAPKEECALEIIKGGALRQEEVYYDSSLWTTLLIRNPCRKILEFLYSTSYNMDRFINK

Turning to `Cn1c(-c2ccc(Cc3ccccc3)cc2)nnc1C1(c2ccc(Cl)cc2)CCC1`, the IC50 in assay [1] is 18 nM; in assay [2] it was over 4000 nM; in assay [3], over 4000 nM; in assay [5], 68 nM. Besides, the inhibition in vivo at 10 mg/kg with Mus musculus [4] was -4%; in the assay on Mus musculus [6], 20%.
In the case of `C1CCc2nnc(C34CC5CC(CC(C5)C3)C4)n2CC1`, the figures for the IC50 in assay [2] and in assay [3] were over 10000 nM and over 3000 nM, respectively. In addition, the inhibition in vivo at 10 mg/kg in the assay with Mus musculus [4] is 21%; in the assay with Mus musculus [6] it was 31%.
Take `Cn1c(-c2ccccc2)nnc1C1(c2ccc(Cl)cc2)CCC1`: the IC50 was 52 nM in assay [1], over 4000 nM in assay [2], over 4000 nM in assay [3] and 1.7 nM in assay [5]. In addition, the figures for the inhibition in vivo at 10 mg/kg in the assay on Mus musculus [4] and in the assay on Mus musculus [6] were 29% and 47%, respectively.
In the case of `Cn1c(-c2ccc(O)c(F)c2)nnc1C1(c2ccc(Cl)cc2)CCC1`, the IC50 in assay [1] is 61 nM; in assay [2] it was over 4000 nM; in assay [3] it was over 4000 nM; in assay [5], 2 nM. Further, the inhibition in vivo at 10 mg/kg in the assay on Mus musculus [4] came to 6%; in the assay on Mus musculus [6], 3%.
Consider `Cn1c(-c2ccc(C(F)(F)F)cc2)nnc1C1(c2ccc(Cl)cc2)CCC1`, for which the IC50 was 26 nM in assay [1], over 4000 nM in assay [2], over 4000 nM in assay [3] and 9.3 nM in assay [5].
On to `Cn1c(-c2ccc(C(C)(C)C)cc2)nnc1C1(c2ccc(Cl)cc2)CCC1`, for which the IC50 in assay [1] was 1.8 nM; in assay [2], over 4000 nM; in assay [3], over 4000 nM; in assay [5], 14 nM.
With `Cn1c(-c2ccc(-n3cccc3)cc2)nnc1C1(c2ccc(Cl)cc2)CCC1`, the IC50 is 5.4 nM in assay [1], over 4000 nM in assay [2], over 4000 nM in assay [3] and 3 nM in assay [5]. In addition, the inhibition in vivo at 10 mg/kg in the assay on Mus musculus [4] amounted to 28%; with Mus musculus [6] it was 41%.
As to `Clc1ccc(C2(c3nnc4n3CCCCCC4)CCC2)cc1`, the IC50 was over 4000 nM in assay [2], over 4000 nM in assay [3] and 1.3 nM in assay [5].
`Cn1c(-c2ccc(OC(F)(F)F)cc2)nnc1C1(c2ccc(Cl)cc2)CCC1`: the IC50 is 6.9 nM in assay [1], over 4000 nM in assay [2], over 4000 nM in assay [3] and 13 nM in assay [5]. Further, the results for the inhibition in vivo at 10 mg/kg in the assay with Mus musculus [4] and with Mus musculus [6] were 27% and 64%, respectively.
Consider `COc1ccccc1-c1nnc(C2(c3ccc(Cl)cc3)CCC2)n1C`, for which the IC50 in assay [1] is 7.8 nM; in assay [2] it was over 4000 nM; in assay [3] it was over 4000 nM; in assay [5], 2.7 nM. Also, the inhibition in vivo at 10 mg/kg in the assay on Mus musculus [4] was determined as 12%; in the assay with Mus musculus [6] it was 28%.
Regarding `Cn1c(-c2ccc(I)cc2)nnc1C1(c2ccc(Cl)cc2)CCC1`, the IC50 in assay [1] was 8.2 nM; in assay [2], over 4000 nM; in assay [3], over 4000 nM; in assay [5], 3.8 nM.
Regarding `Cn1c(-c2cccc(OC(F)(F)F)c2)nnc1C1(c2ccc(Cl)cc2)CCC1`, the IC50 in assay [1] was 36 nM; in assay [2], over 4000 nM; in assay [3] it was over 4000 nM; in assay [5], 2.2 nM.
As for `Cc1ccccc1-c1nnc(C2(c3ccc(Cl)cc3)CCC2)n1C`, the IC50 is 21 nM in assay [1], over 4000 nM in assay [2], over 4000 nM in assay [3] and 5 nM in assay [5]. The inhibition in vivo at 10 mg/kg was determined as 1% with Mus musculus [4] and 9% with Mus musculus [6].
Consider `Cn1c(-c2ccc(F)cc2)nnc1C1(c2ccc(Cl)cc2)CCC1`, for which the IC50 is 101 nM in assay [1], over 4000 nM in assay [2], over 4000 nM in assay [3] and 1.5 nM in assay [5].
Regarding `Cn1c(-c2ccccc2)nnc1C12CC3CC(CC(C3)C1)C2` [FIG 1], the IC50 in assay [1] was 109 nM; in assay [2], over 4000 nM; in assay [3], over 4000 nM; in assay [5] it was 37 nM. Besides, the inhibition in vivo at 10 mg/kg in the assay with Mus musculus [4] is 47%; in the assay with Mus musculus [6], 85%.
Take `Cn1c(-c2ccc(-c3nccs3)cc2)nnc1C1(c2ccc(Cl)cc2)CCC1`: the IC50 in assay [1] is 3.1 nM; in assay [2], over 4000 nM; in assay [3] it was over 4000 nM; in assay [5] it was 44 nM. Moreover, the inhibition in vivo at 10 mg/kg with Mus musculus [4] is 67%; in the assay with Mus musculus [6], 92%.
For `Cn1c(-c2ccccc2O)nnc1C1(c2ccc(Cl)cc2)CCC1`, the IC50 in assay [1] was 17 nM; in assay [2], over 4000 nM; in assay [3] it was over 4000 nM; in assay [5], 1.8 nM. Further, the inhibition in vivo at 10 mg/kg with Mus musculus [4] and with Mus musculus [6] was -2% in each case.
On to `Cn1c(-c2cccc(O)c2)nnc1C1(c2ccc(Cl)cc2)CCC1`, for which the half-maximal inhibitory concentration (IC50) is 19 nM in assay [1], over 4000 nM in assay [2], over 4000 nM in assay [3] and 1 nM in assay [5].
For `Cn1c(-c2ccccc2F)nnc1C1(c2ccc(Cl)cc2)CCC1`, the IC50 in assay [1] was 21 nM; in assay [2], over 4000 nM; in assay [3], over 4000 nM; in assay [5], 2 nM.
Take `Cn1c(-c2ccc(Oc3ccccc3)cc2)nnc1C1(c2ccc(Cl)cc2)CCC1`: the IC50 in assay [1] is 3.7 nM; in assay [2] it was over 4000 nM; in assay [3], over 4000 nM; in assay [5], 26 nM.
Consider `Cn1c(-c2cccc(Cl)c2)nnc1C1(c2ccc(Cl)cc2)CCC1`, for which the IC50 is 34 nM in assay [1], over 4000 nM in assay [2], over 4000 nM in assay [3] and 1 nM in assay [5]. The inhibition in vivo at 10 mg/kg came to 12% in the assay on Mus musculus [4] and 24% in the assay with Mus musculus [6].
For the compound `Cn1c(-c2ccccc2OC(F)(F)F)nnc1C1(c2ccc(Cl)cc2)CCC1`, the IC50 in assay [1] is 4.1 nM; in assay [2], over 4000 nM; in assay [3], over 4000 nM; in assay [5], 2.3 nM. For the same compound, the inhibition in vivo at 10 mg/kg was 44% with Mus musculus [4] and 59% in the assay on Mus musculus [6].
On to `Cn1c(-c2cccc(-c3ccccc3)c2)nnc1C1(c2ccc(Cl)cc2)CCC1`, for which the IC50 in assay [1] was 56 nM; in assay [2], over 4000 nM; in assay [3], over 4000 nM; in assay [5], 4.3 nM. Besides, the inhibition in vivo at 10 mg/kg in the assay with Mus musculus [4] and with Mus musculus [6] was -2% each time.
On to `Cn1c(-c2ccccc2Cl)nnc1C1(c2ccc(Cl)cc2)CCC1`, for which the IC50 was 3.5 nM in assay [1], over 4000 nM in assay [2], over 4000 nM in assay [3] and 0.28 nM in assay [5]. The inhibition in vivo at 10 mg/kg worked out at 73% with Mus musculus [4] and 86% with Mus musculus [6].
Take `Cn1c(-c2ccc(-c3ccc(F)cc3)cc2)nnc1C1(c2ccc(Cl)cc2)CCC1`: the IC50 is 9.1 nM in assay [1], over 4000 nM in assay [2], over 4000 nM in assay [3] and 11 nM in assay [5].
Consider `Cn1c(-c2ccc(OC3CC3)cc2)nnc1C1(c2ccc(Cl)cc2)CCC1`, for which the IC50 in assay [1] was 2.2 nM; in assay [2], over 4000 nM; in assay [3] it was over 4000 nM; in assay [5] it was 10 nM. Also, the inhibition in vivo at 10 mg/kg in the assay with Mus musculus [4] and in the assay on Mus musculus [6] was 95% in each case.
Turning to `Cn1c(-c2ccc(O)cc2)nnc1C1(c2ccc(Cl)cc2)CCC1`, the IC50 in assay [1] was 19 nM; in assay [2] it was over 4000 nM; in assay [3], over 4000 nM; in assay [5] it was 0.34 nM. The figures for the inhibition in vivo at 10 mg/kg with Mus musculus [4] and in the assay with Mus musculus [6] were 10% and 17%, respectively.
Take `Cn1c(-c2ccc(Cl)cc2Cl)nnc1C1(c2ccc(Cl)cc2)CCC1`: the IC50 in assay [1] is 13 nM; in assay [2], over 4000 nM; in assay [3] it was over 4000 nM; in assay [5], 1 nM.
On to `Cc1nc2ccccc2n1-c1ccc(-c2nnc(C3(c4ccc(Cl)cc4)CCC3)n2C)c(Cl)c1`, for which the IC50 was 57 nM in assay [1], over 4000 nM in assay [2] and 12 nM in assay [5].
On the same counts, the results for `CSc1nccn1-c1ccc(-c2nnc(C3(c4ccc(Cl)cc4)CCC3)n2C)c(Cl)c1` are 3.9 nM, over 4000 nM and 3.9 nM.
As to `Cc1cn(-c2ccc(-c3nnc(C4(c5ccc(Cl)cc5)CCC4)n3C)c(Cl)c2)c(C)n1`, the IC50 in assay [1] is 7.2 nM; in assay [2], over 4000 nM; in assay [5] it was 6.9 nM.
As for `Cn1c(-c2cccc(F)c2)nnc1C1(c2ccc(Cl)cc2)CCC1`, the IC50 in assay [1] is 163 nM; in assay [2] it was over 4000 nM; in assay [3], over 4000 nM; in assay [5], 2.2 nM.
